Results published in patent US8415342B2, “Besifloxacin ophthalmic composition for the treatment or control of infection” (Bausch & Lomb Incorporated, priority 2008, dated 2013).
≈ marks a conversion by molar mass, not a printed value. Where “and” joins values, the source holds several entries; their conditions need not be identical. Identical values can stand only once. Like-named read-outs stand apart in the source and are kept apart here.

Experiments:
Anaerobic Bacteria = test: MIC against anaerobic bacteria (Table 7); format: cell-based
S. epidermidis = test: MIC and MBC:MIC ratio, recent ocular isolates; format: cell-based; settings: S. epidermidis (N = 15); for MIC50 / MIC90: Staphylococcus epidermidis
S. aureus = test: MIC and MBC:MIC ratio, recent ocular isolates; format: cell-based; settings: S. aureus (N = 30); for MIC50 / MIC90: Staphylococcus aureus
S. pneumoniae [1] = test: MIC and MBC:MIC ratio, recent ocular isolates; format: cell-based; settings: S. pneumoniae (N = 35); for MIC50 / MIC90: Streptococcus pneumoniae
E. coli DNA gyrase = E. coli DNA gyrase (Escherichia coli, UniProt P0AES4+P0AES6); test: Cleavable complex stimulation (CC25), DNA gyrase; format: biochemical; settings: E. coli enzymes; concentration that produces 25% linearization of the DNA
[2] = tested on: E. coli topoisomerase mutants; test: MIC against defined topoisomerase mutants; format: cell-based; settings: Escherichia coli
Experimental: Furthermore, an experiment was conducted to assess the mechanism of action of besifloxacin in S. pneumoniae, S. aureus, and E. coli via step selections for isolates with decreased susceptibility to besifloxacin, as well as by testing for altered susceptibilities of ciprofloxacin-resistant variants of all three species containing genetically defined mutations in the quinolone resistance determining regions (QRDRs) of structural genes encoding DNA gyrase and topoisomerase IV (Table 2).

[3] = Predicted PK/PD ratios in tears with simulated TID dosing (Table 10); set-up: species or system human; settings: for Cmax/MIC90, Free / AUC24/MIC90, Free: tears, free besifloxacin (40% bound); for AUC24/MIC90, Free: predicted TID
bacterial conjunctivitis [4] = test: Study 433: besifloxacin ophthalmic suspension vs vehicle, TID 5 days; format: in vivo, human; settings: N = 199; for Clinical Resolution (2 indices), No / Clinical Resolution (2 indices), Yes: mITT culture confirmed as randomized; for Microbial Eradication, No / Microbial Eradication, Yes: missing or discontinued imputed as no
bacterial conjunctivitis [5] = test: Study 434: besifloxacin ophthalmic suspension vs Vigamox, TID 5 days; format: in vivo, human; settings: for Clinical Resolution (2 indices), No / Clinical Resolution (2 indices), Yes: mITT culture-confirmed as treated; for Microbial Eradication, No / Microbial Eradication, Yes: missing or discontinued imputed as no, as treated
H. influenzae = test: MIC of clinical trial isolates, Studies 373, 433, 434; format: cell-based; settings: Haemophilus influenzae, isolates of studies 373, 433, 434; read-out: MIC90
Experimental: (§1) PFGE testing was performed per standard procedures.
(§2) The antibacterial susceptibility profile of each Visit 1 bacterial isolate was determined for besifloxacin and other antimicrobials.

S. pneumoniae [6] = test: as above; format: cell-based; settings: Streptococcus pneumoniae, isolates of studies 373, 433, 434; read-out: MIC90
Experimental: as §1, §2

[7] = Bacteroides fragilis, Bacteroides fragilis (N = 20), read-out: MIC50
[8] = Bacteroides fragilis, Bacteroides fragilis (N = 20), read-out: MIC90
[9] = Clostridium perfringens (N = 21)
[10] = Clostridium perfringens, Clostridium perfringens (N = 21)
[11] = Cutibacterium acnes, Propionibacterium acnes (N = 21), read-out: MIC50
[12] = Cutibacterium acnes, Propionibacterium acnes (N = 21), read-out: MIC90
[13] = Fusobacterium spp. (N = 21), read-out: MIC50
[14] = Prevotella spp. (N = 20), read-out: MIC50
[15] = Prevotella spp. (N = 20), read-out: MIC90
[16] = Propionibacterium acnes (N = 21)
[17] = Staphylococcus aureus (MRSA-CR)
[18] = Staphylococcus aureus (MSSA-CR)
[19] = Staphylococcus aureus (all phenotypes)
[20] = Visit 2 (Day 5 ± 1), primary endpoint

COc1c(N2CCNC(C)C2)c(F)cc2c(=O)c(C(=O)O)cn(C3CC3)c12 (stereo not shown) [Gatifloxacin]
MIC Range (Anaerobic Bacteria; Bacteroides fragilis (N = 20)): 1 to 16 µg/mL | MIC50 (Anaerobic Bacteria; [7]): 2 µg/mL (≈ 5.33 µM) | MIC90 (Anaerobic Bacteria; [8]): 4 µg/mL (≈ 10.7 µM) | MIC Range (Anaerobic Bacteria; [9]): 0.5 to 1 µg/mL | MIC50 (Anaerobic Bacteria; [10]): 1 µg/mL (≈ 2.66 µM) | MIC90 (Anaerobic Bacteria; [10]): 1 µg/mL (≈ 2.66 µM) | MIC50 (Anaerobic Bacteria; [11]): 0.25 µg/mL (≈ 0.666 µM) | MIC90 (Anaerobic Bacteria; [12]): 0.5 µg/mL (≈ 1.33 µM) | MIC50 (Anaerobic Bacteria; [13]): 1 µg/mL (≈ 2.66 µM) | MIC90 (Anaerobic Bacteria; Fusobacterium spp. (N = 21), read-out: MIC90): 4 µg/mL (≈ 10.7 µM) | MIC50 (Anaerobic Bacteria; [14]): 8 µg/mL (≈ 21.3 µM) | MIC90 (Anaerobic Bacteria; [15]): 16 µg/mL (≈ 42.6 µM) | MIC Range (Anaerobic Bacteria; [16]): 0.25 to 0.5 µg/mL

CC[C@H]1OC(=O)[C@H](C)[C@@H](O[C@H]2C[C@@](C)(OC)[C@@H](O)[C@H](C)O2)[C@H](C)[C@@H](O[C@@H]2O[C@H](C)C[C@H](N(C)C)[C@H]2O)[C@](C)(O)C[C@@H](C)CN(C)[C@H](C)[C@@H](O)[C@]1(C)O [Azithromycin]
% S (susceptible isolates, CLSI) (S. epidermidis; recent ocular isolates): 26.7% | MIC50 (S. epidermidis; recent ocular isolates): > 8 µg/mL | MIC90 (S. epidermidis; recent ocular isolates): > 8 µg/mL | % S (susceptible isolates, CLSI) (S. aureus; recent ocular isolates): 53.3% | MIC50 (S. aureus; recent ocular isolates): 1 µg/mL | MIC90 (S. aureus; recent ocular isolates): > 8 µg/mL | % S (susceptible isolates, CLSI) (S. pneumoniae [1]; recent ocular isolates): 62.9% | MIC50 (S. pneumoniae [1]; recent ocular isolates): 0.06 µg/mL | MIC90 (S. pneumoniae [1]; recent ocular isolates): > 8 µg/mL

N[C@@H]1CCCCN(c2c(F)cc3c(=O)c(C(=O)O)cn(C4CC4)c3c2Cl)C1 [Besifloxacin, (R)-(+)-(3-amino-2,3,4,5,6,7-hexahydro-1H-azepin-1-yl)-8-chloro-1-cyclopropyl-6-fluoro-1,4,-dihydro-4-oxo-3-quinolinecarboxylic acid]
CC25 Gyrase (E. coli DNA gyrase): 0.1 μM and 0.04 μg/mL | MIC ([2]; E. coli Wild type): 0.12 µg/mL (≈ 0.305 µM) | MIC ([2]; E. coli gyrA D87Y (or S83L)): 0.5 µg/mL (≈ 1.27 µM) | MIC ([2]; E. coli gyrA S83L + parC S80R): 16 µg/mL | MIC ([2]; E. coli gyrA S83L + parE H445L): 1 µg/mL | MIC ([2]; E. coli gyrB D426N): 0.5 µg/mL (≈ 1.27 µM) | % of isolates with MBC:MIC ratio 1 (S. epidermidis): 73.3% | % of isolates with MBC:MIC ratio 2 (S. epidermidis): 20.0% | % of isolates with MBC:MIC ratio 4 (S. epidermidis): 6.7% | % of isolates with MBC:MIC ratio 8 (S. epidermidis): 0.0% | % of isolates with MBC:MIC ratio ≧16 (S. epidermidis): 0.0% | MIC Range (S. epidermidis; recent ocular isolates): 0.015 to 4 µg/mL | MIC50 (S. epidermidis; recent ocular isolates): 0.03 µg/mL | MIC90 (S. epidermidis; recent ocular isolates): 4 µg/mL | % of isolates with MBC:MIC ratio 1 (S. aureus): 56.7% | % of isolates with MBC:MIC ratio 2 (S. aureus): 23.3% | % of isolates with MBC:MIC ratio 4 (S. aureus): 6.7% | % of isolates with MBC:MIC ratio 8 (S. aureus): 13.3% | % of isolates with MBC:MIC ratio ≧16 (S. aureus): 0.0% | MIC Range (S. aureus; recent ocular isolates): 0.015 to 4 µg/mL | MIC50 (S. aureus; recent ocular isolates): 0.12 µg/mL | MIC90 (S. aureus; recent ocular isolates): 4 µg/mL | % of isolates with MBC:MIC ratio 1 (S. pneumoniae [1]): 60.0% | % of isolates with MBC:MIC ratio 2 (S. pneumoniae [1]): 37.1% | % of isolates with MBC:MIC ratio 4 (S. pneumoniae [1]): 2.9% | % of isolates with MBC:MIC ratio 8 (S. pneumoniae [1]): 0.0% | % of isolates with MBC:MIC ratio ≧16 (S. pneumoniae [1]): 0.0% | MIC Range (S. pneumoniae [1]; recent ocular isolates): 0.015 to 0.5 µg/mL | MIC50 (S. pneumoniae [1]; recent ocular isolates): 0.06 µg/mL | MIC90 (S. pneumoniae [1]; recent ocular isolates): 0.06 µg/mL | MIC50 (Anaerobic Bacteria; [7]): 0.5 µg/mL (≈ 1.27 µM) | MIC90 (Anaerobic Bacteria; [8]): 1 µg/mL (≈ 2.54 µM) | MIC Range (Anaerobic Bacteria; [9]): 0.12 to 0.25 µg/mL | MIC50 (Anaerobic Bacteria; [10]): 0.25 µg/mL (≈ 0.635 µM) | MIC90 (Anaerobic Bacteria; [10]): 0.25 µg/mL (≈ 0.635 µM) | MIC50 (Anaerobic Bacteria; [11]): 0.25 µg/mL (≈ 0.635 µM) | MIC90 (Anaerobic Bacteria; [12]): 0.25 µg/mL (≈ 0.635 µM) | MIC Range (Anaerobic Bacteria; Fusobacterium spp. (N = 21)): 0.12 to 8 µg/mL | MIC50 (Anaerobic Bacteria; [13]): 0.25 µg/mL (≈ 0.635 µM) | MIC Range (Anaerobic Bacteria; Prevotella spp. (N = 20)): 0.06 to 16 µg/mL | MIC50 (Anaerobic Bacteria; [14]): 1 µg/mL (≈ 2.54 µM) | MIC90 (Anaerobic Bacteria; [15]): 4 µg/mL (≈ 10.2 µM) | MIC Range (Anaerobic Bacteria; [16]): 0.12 to 0.25 µg/mL | AUC24/MIC90, Total [3]: 950 | Cmax/MIC90, Free ([3]; Haemophilus influenzae): 6100 | AUC24/MIC90, Free ([3]; Haemophilus influenzae): 38,010 | Cmax/MIC90, Free [3, 17]: 92 | AUC24/MIC90, Free [3, 17]: 570 | Cmax/MIC90, Free [3, 18]: 183 | AUC24/MIC90, Free [3, 18]: 1140 | Cmax/MIC90, Free [3, 19]: 732 | AUC24/MIC90, Free [3, 19]: 4561 | Cmax/MIC90, Free ([3]; Staphylococcus epidermidis): 732 | AUC24/MIC90, Free ([3]; Staphylococcus epidermidis): 4561 | Cmax/MIC90, Free ([3]; Streptococcus pneumoniae): 2928 | AUC24/MIC90, Free ([3]; Streptococcus pneumoniae): 18,245 | Cmax/MIC90, Total ([3]; human): 153 | Clinical Resolution (2 indices), No (bacterial conjunctivitis [4]; Visit 2 (Day 5 ± 1)): 109 (54.8) n (%) | Microbial Eradication, No (bacterial conjunctivitis [4]; Visit 2 (Day 5 ± 1)): 17 (8.5) n (%) | Clinical Resolution (2 indices), Yes (bacterial conjunctivitis [4]; [20]): 90 (45.2) n (%) | Microbial Eradication, Yes (bacterial conjunctivitis [4]; [20]): 182 (91.5) n (%) | Clinical Resolution (2 indices), No (bacterial conjunctivitis [4]; Visit 3 (Day 8 or 9)): 31 (15.6) n (%) | Clinical Resolution (2 indices), Yes (bacterial conjunctivitis [4]; Visit 3 (Day 8 or 9)): 168 (84.4) n (%) | Microbial Eradication, No (bacterial conjunctivitis [4]; Visit 3 (Day 8 or 9)): 23 (11.6) n (%) | Microbial Eradication, Yes (bacterial conjunctivitis [4]; Visit 3 (Day 8 or 9)): 176 (88.4) n (%) | Clinical Resolution (2 indices), No (bacterial conjunctivitis [5]; Visit 2 (Day 5 ± 1)): 105 (41.7) n (%) | Microbial Eradication, No (bacterial conjunctivitis [5]; Visit 2 (Day 5 ± 1)): 17 (6.7) n (%) | Clinical Resolution (2 indices), Yes (bacterial conjunctivitis [5]; [20]): 147 (58.3) n (%) | Microbial Eradication, Yes (bacterial conjunctivitis [5]; [20]): 235 (93.3) n (%) | Clinical Resolution (2 indices), No (bacterial conjunctivitis [5]; Visit 3 (Day 8 or 9)): 39 (15.5) n (%) | Clinical Resolution (2 indices), Yes (bacterial conjunctivitis [5]; Visit 3 (Day 8 or 9)): 213 (84.5) n (%) | Microbial Eradication, No (bacterial conjunctivitis [5]; Visit 3 (Day 8 or 9)): 32 (12.7) n (%) | Microbial Eradication, Yes (bacterial conjunctivitis [5]; Visit 3 (Day 8 or 9)): 220 (87.3) n (%) | MIC90 (H. influenzae): 0.06 µg/mL | MIC90 (S. pneumoniae [6]): 0.125 µg/mL
